target: T1, htt(72)CFP/YFP (Homo sapiens, UniProt P42858, INS38QQQQQQQQQQQQQQQQQQQQQQQQQQQQQQQQQQQQQQQQQQQQQQQQQQQ); assay: FRET based assay of htt aggregation; format: cell-based; conditions: HEK293, htt(72)CFP/YFP, 24 hours
T1 construct: htt exon 1 fragment derived from plasmid qp72; expressed in transfected cells; host or cells: HEK293
Experimental: Aggregation of htt was monitored using the FPR FRET based HTS described herein for assaying aggregation of AR, using plasmids with htt exon 1-CFP and -YFP fusions containing 72 repeats (htt(72)CFP/YFP). HEK293 cells were transfected with htt(72)CFP/YFP as above, and cells were plated into a 96-well dish in the presence or absence of various concentrations of test compounds. After 24 hours, cells were fixed in 4% paraformaldehyde, and FRET signal was determined from the cell monolayers by reading on the FPR.

T1 sequence (P42858 with tags, fused parts or gaps, stated change not applied): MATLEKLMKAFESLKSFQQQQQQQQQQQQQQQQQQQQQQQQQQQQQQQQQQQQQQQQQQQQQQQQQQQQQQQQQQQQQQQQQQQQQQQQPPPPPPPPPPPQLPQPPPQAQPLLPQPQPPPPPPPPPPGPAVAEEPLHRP

Compound | Max % Inh. in Htt
COc1cc2ncnc(Nc3ccc(F)c(Cl)c3)c2cc1OC(C)=O [Compound 3, Acetic acid 4-(3-chloro-4-fluoro-phenylamino)-7-methoxy-quinazolin-6-yl ester] | 21%
COc1cc2nc[nH]c(=O)c2cc1OC(C)=O [Compound 4, Acetic acid 7-methoxy-4-oxo-3,4-dihydro-quinazolin-6-yl ester] | 15%
COc1cc2ncnc(Nc3ccc(F)c(Cl)c3)c2cc1OCCCN1CCOCC1 [Iressa, (3-Chloro-4-fluoro-phenyl)-[7-methoxy-6-(3-morpholin-4-yl-propoxy)-quinazolin-4-yl]-amine] | 20%
Oc1cc(O)cc(/C=C/c2ccc(O)c(O)c2)c1 [Piceatannol, 3,3′4,5′-Tetrahydroxy-Trans-stilbene] | 28%

system: ARN127(65)CFP/YFP; assay: Secondary screen using the AR FRET assay; format: cell-based, human; conditions: secondary screen, AR FRET assay, Table 3
Experimental: Selected candidate compounds and/or libraries of compounds were screened as follows. Daughter plates were created in duplicate from the 384-well microtiter plates that contained the compounds at a concentration of 80 μg/ml. […] To screen a library, HEK293 cells stably expressing RFP were plated in 10 cm plates to obtain ˜80% confluency on the day of transfection. Each plate was transfected with 2 μg of ARN127(65)CFP/YFP each, and 0.7 μg p6RGRΔ using 50 μL Plus Reagent™ and 76 μL Lipofectamine™ according to manufacturer's protocol (Invitrogen). After 3 hours, complete medium was added and the plates were incubated further for 3 hours. […] The cells were then cultured for ˜48 hours to allow aggregate formation. After fixing the cells FRET signal was measured using a SAFIRE Fluorescence Plate Reader (Tecan, Inc.) according to methods described above. Several internal controls were used to standardize each experiment. Mock transfected cells were used to control for background autofluorescence and light scattering by mammalian cells. To control for CFP bleedthrough and crossover excitation of YFP, additional wells contained cells expressing ARN127(25)CFP or ARN127(25)YFP alone. RFP was measured to control for non-specific effects on steady-state protein levels. ARN127(25)CFP/YFP expression served as a reference point for background FRET levels without aggregation (a theoretical maximum effect on aggregation inhibition). FRET measurements for each experiment were thus scaled between 100% (cells with no drug treatment) and 0% (FRET levels from unexpanded protein).
Selected candidate compounds from the primary screen of all three libraries were assayed again in a secondary screen using the AR FRET assay.
Finally, the role of F-actin in preventing polyglutamine aggregation was investigated by treating cells with two agents that prevent actin depolymerization: phalloidin and jasplakinolide.

Compound | Max % Inhibition
COc1cc2ncnc(Nc3ccc(F)c(Cl)c3)c2cc1OC(C)=O [Compound 3, Acetic acid 4-(3-chloro-4-fluoro-phenylamino)-7-methoxy-quinazolin-6-yl ester] | 30%
COc1cc2nc[nH]c(=O)c2cc1OC(C)=O [Compound 4, Acetic acid 7-methoxy-4-oxo-3,4-dihydro-quinazolin-6-yl ester] | 28%
Oc1cc(O)cc(/C=C/c2ccc(O)c(O)c2)c1 [Piceatannol, 3,3′4,5′-Tetrahydroxy-Trans-stilbene] | 23%

system: ARN127(65)CFP/YFP; assay: Primary high-throughput AR FRET screen of three libraries; format: cell-based, human; conditions: compounds at 4 μg/ml, HEK293, ARN127(65)CFP/YFP + GRΔ, 100 nM dex, ~48 hours
Experimental: (§1) Selected candidate compounds and/or libraries of compounds were screened as follows. Daughter plates were created in duplicate from the 384-well microtiter plates that contained the compounds at a concentration of 80 μg/ml. Compounds were aliquoted in 96-well plates (Costar™ 3603) at a concentration at which most of the compounds are active, but are not toxic to the cells (e.g., of 4 μg/ml). To screen a library, HEK293 cells stably expressing RFP were plated in 10 cm plates to obtain ˜80% confluency on the day of transfection. Each plate was transfected with 2 μg of ARN127(65)CFP/YFP each, and 0.7 μg p6RGRΔ using 50 μL Plus Reagent™ and 76 μL Lipofectamine™ according to manufacturer's protocol (Invitrogen). After 3 hours, complete medium was added and the plates were incubated further for 3 hours. […] The cells were then cultured for ˜48 hours to allow aggregate formation. After fixing the cells FRET signal was measured using a SAFIRE Fluorescence Plate Reader (Tecan, Inc.) according to methods described above. Several internal controls were used to standardize each experiment. Mock transfected cells were used to control for background autofluorescence and light scattering by mammalian cells. To control for CFP bleedthrough and crossover excitation of YFP, additional wells contained cells expressing ARN127(25)CFP or ARN127(25)YFP alone. RFP was measured to control for non-specific effects on steady-state protein levels. ARN127(25)CFP/YFP expression served as a reference point for background FRET levels without aggregation (a theoretical maximum effect on aggregation inhibition). FRET measurements for each experiment were thus scaled between 100% (cells with no drug treatment) and 0% (FRET levels from unexpanded protein). Last, each plate also contained wells treated with Y-27632 (50 μM) as a positive control.
as §1, with “Daughter” for “Selected candidate compounds and/or libraries of compounds were screened as follows. Daughter”, “a single concentration, e.g.,” for “a concentration of”, “concentration of 4 μg/ml,” for “concentration”, “the cells.” for “the cells (e.g., of 4 μg/ml).”, “screen the” for “screen a”

Compound | % Inhibition
O=c1ncnc2n([C@H]3O[C@@H](CO)[C@H](O)[C@@H]3O)[nH]cc1-2 (stereo in doubt) [Allopurinol riboside] | 71.8%
NCc1ccc(Cl)cc1Cl [2,4-Dichlorobenzylamine] | 85%
COC1=C2CC[C@@H]3[C@H](CC[C@]4(C)C(=O)CC[C@@H]34)[C@@]2(C)CCC1=O [4-Androsten-4-ol-3,17-dione 4-methyl ether] | 65.3%
Nc1nc2c(nc(Br)n2[C@@H]2O[C@@H]3COP(=O)([O-])O[C@H]3[C@H]2O)c(=O)[nH]1.[Na+] [8-Bromoguanosine 3′,5′-cyclic monophosphate sodium salt] | 71%
Cl.NC[C@@H]1O[C@H](C23CC4CC(CC(C4)C2)C3)Cc2c1ccc(O)c2O [A-77636 hydrochloride] | 64%
NC(N)=NCCC[C@H](N)C(=O)C[C@@H](Cc1ccc(O)cc1)C(=O)O.NC(N)=NCCC[C@H](N)C(=O)C[C@@H](Cc1ccc(O)cc1)C(=O)O.O=S(=O)(O)O [Arphamenine B Hemisulfate Salt: Hydrate] | 69.7%
Cn1cnc([N+](=O)[O-])c1Sc1ncnc2nc[nH]c12 [Azathioprine] | 74.5%
Cc1nnc(SCC2=C(C(=O)O)N3C(=O)[C@@H](NC(=O)Cn4cnnn4)[C@H]3SC2)s1 [Cefazolin sodium] | 70%
CO[C@@H]1O[C@H](CO)[C@H](O)[C@H](O[C@@H]2O[C@H](CO)[C@@H](O)[C@H](O)[C@H]2NC(C)=O)[C@H]1O [Methyl 3-O-(2-Acetamido-2-Deoxy-B-D-Glucopyranosyl)-B-D-Galactopyranoside] | 70%
NCCCCCCNS(=O)(=O)c1cccc2ccccc12 [N-6-Aminohexyl-1-Naphthalenesulfonamide] | 79.7%
Cc1ccc(S(=O)(=O)N[C@@H](CCC(N)=O)C(=O)OC(C)C)cc1 [N-(P-Tosyl)-L-Glutamine Isopropyl Ester] | 80.6%
Nc1ccc(S(=O)(=O)Nc2ncccn2)cc1 [Sulfadiaine Free Acid] | 80%
Cytosine beta-D-arabinofuranoside Hydrochloride | 81%
L-Canavanine Free Base | 73%
